Data from US9187474B2, “Raf inhibitor compounds” (Deciphera Pharmaceuticals, LLC, priority 2012, dated 2015).

Columns and labels:
[1] = test system: A-Raf, B-RafV600E and C-Raf; assay: ActivX KiNativ A375 whole cell lysate assay, summary over Raf isoforms; format: binding, human; conditions: A375 cells; summary of Table 1
Protocol: (§1) To further evaluate the enzymatic pan Raf activities of test compounds, they are evaluated in a KiNativ assay developed and carried out by ActivX Biosciences Inc. using whole cell lysates of A375 cells. A375 cells are human melanoma cells with a B-Raf V600E mutation.
Sample preparation: A375 cells from ATCC are lysed by sonication in commercially available lysis buffer, cleared by centrifugation, and the resulting supernatant gel filtered into a commercially available kinase reaction buffer containing 20 mM MnCl2. Final protein concentration of lysates are 10 mg/mL. 5 μL of each test compound is added from 100 μM, 10 μM, 1 μM, or 0.1 μM stock solutions in DMSO to 500 uL of lysate in duplicate for final concentrations of 1 μM, 0.1 μM, 0.01 μM, and 0.001 μM. 5 μL of DMSO is added to 500 μL of lysate in quadruplicate for controls. After 15 minute incubation, desthiobiotin-ATP acylphosphate probe is added to each sample to a final concentration of 5 μM and incubated with the samples for 10 minutes. […]
(§2) Data collection: Enriched peptide samples are analyzed by LC-MS/MS on a Thermo-LTQ Velos ion trap mass spectrometer using ActivX data collection methodology for A375 cells.
Data analysis: All quantitation is performed by extracting characteristic fragment ion signals from targeted MS/MS spectra and comparing signals in control and treated samples. […]

[2] = test system: A375res cells; assay: Proliferation assay in vemurafenib-resistant A375res melanoma cells; conditions: Homo sapiens, 72 h, read-out: absolute IC50 values
Description: (§6) A vemurafenib-resistant cell line is generated by chronic treatment of the human melanoma cell line A375 (ATCC) harboring the B-Raf V600E mutation with increasing concentrations PLX4720.

[3] = test system: A375res cells
Description: as §6

[4] = test system: A375 xenograft tumor; assay: A375 mouse xenograft efficacy model; format: in vivo, mice; conditions: oral, 21 days
Protocol: (§3) To further evaluate in vivo activity of compounds of Formula I, an A375 xenograft tumor model is utilized. Briefly, 10×10^6 cells in a 1:1 matrigel mix (0.2 mL total volume) are implanted by subcutaneous injection in the hind leg of nude female mice. A total of 8-10 mice in each group are used. Treatment is initiated with oral administration (gavage) of a test compound or vehicle (20% captisol, 25 mM phosphate, pH2.0) in 0.2 mL volume when tumor size reaches approximately 300-500 mg. Test compound is orally dosed twice or thrice a day for 21 days. Tumor growth and body weight are monitored over time to evaluate efficacy and signs of toxicity. Bidimensional measurements of tumors are performed twice a week and tumor volumes are calculated based on the following formula: (Tumor Volume)=[(L)×(W^2)×(π/6)] where L is mid-axis length and W is mid-axis width. Tumor volume data are transformed to a log scale to equalize variance across time and treatment groups. The log volume data are analyzed with a two-way repeated measures analysis of variance by time and treatment using the MIXED procedures in SAS software (version 8.2). The correlation model for the repeated measures is spatial power. Treated groups are compared to the control group at each time point. The MIXED procedure is also used separately for each treatment group to calculate adjusted means and standard errors at each time point. Both analyses account for the autocorrelation within each animal and the loss of data that occurs when animals with large tumors are removed from the study early. The adjusted means and standard errors are plotted for each treatment group versus time.

[5] = test system: phospho-ERK in HCT-116 cells; assay: HCT-116 cell pERK assay (AlphaScreen SureFire); format: cell-based; conditions: Homo sapiens; HCT-116 cells, B-Raf wild type, K-Ras mutation; 4 hours; read-out: IC50 reduction of phospho-ERK signal
Protocol: Examples of Formula I are tested against HCT-116 cells harboring wild type B-Raf and K-Ras mutation. The phospho-ERK activities are evaluated as described below.
HCT-116 cells (catalog #CCL-247) are obtained from the American Type Culture Collection (ATCC, Manassas, Va.). Briefly, cells are grown in McCoy's 5A supplemented with 10% characterized fetal bovine serum (Invitrogen, Carlsbad, Calif.), and 1% Penicillin/Streptomycin/L-Glutamine at 37 degrees Celsius, 5% CO2, and 95% humidity. Cells are allowed to expand until reaching 75-90% confluency at which point they are subcultured or harvested for assay use. HCT-116 cells suspended in complete media are added to 384-well tissue culture treated plates (3×10^5 cells/mL; 7,500 cells per well). The cells are incubated overnight at 37 degrees Celsius, 5% CO2, and 95% humidity. Next, test compound or DMSO diluted in complete media is added to the wells (0.25% final DMSO concentration). The plates are then incubated for 4 hours at 37 degrees Celsius, 5% CO2, and 95% humidity. Following compound incubation, the cells are lysed at 4° C. for 20 minutes with shaking Cell lysates are centrifuged and the supernatant is transferred to a new plate. An aliquot of each lysate is transferred to a white 384-well assay plate. Using the AlphaScreen SureFire pERK kit (Perkin-Elmer, Waltham, Mass.), an acceptor bead mixture is added to each well and incubated for 2 h at room temperature in the dark. A donor bead mixture is then added to each well and incubated for 2 h at room temperature in the dark. Plates are read using a Synergy2 plate reader (Biotek, Winooski, Vt.) in Plate Mode with Timing Control. Read: (F)1: excitation: 680/30 nm, emission: Plug. 2: Excitation: Plug, emission: 570/100 nm. Top mirror 635 nm. Data is analyzed using Prism software (Graphpad, San Diego, Calif.) to calculate IC50 values and Excel software (Microsoft, Redmond, Wash.) to calculate stimulation compared to control.

[6] = target: B-Raf (V600E) (Homo sapiens (Human), UniProt P15056, V600E); assay: ActivX KiNativ A375 whole cell lysate assay; format: binding
Protocol: as §1
(§4) Sample preparation: A375 cells from ATCC are lysed by sonication in commercially available lysis buffer, cleared by centrifugation, and the resulting supernatant gel filtered into a commercially available kinase reaction buffer containing 20 mM MnCl2. Final protein concentration of lysates are 10 mg/mL. 5 μL of each test compound is added from 100 μM, 10 μM, 1 μM, or 0.1 μM stock solutions in DMSO to 500 uL of lysate in duplicate for final concentrations of 1 μM, 0.1 μM, 0.01 μM, and 0.001 μM. 5 μL of DMSO is added to 500 μL of lysate in quadruplicate for controls. After 15 minute incubation, desthiobiotin-ATP acylphosphate probe is added to each sample to a final concentration of 5 μM and incubated with the samples for 10 minutes. Following the probe reaction, samples are prepared for targeted mass spectrum analysis using ActivX standard protocol. Briefly, samples are prepared for trypsin digestion (denature, reduce alkylate), digested with trypsin, and desthio-biotinylated peptides are enriched on streptavidin resin.
as §2
(§5) Data analysis: All quantitation is performed by extracting characteristic fragment ion signals from targeted MS/MS spectra and comparing signals in control and treated samples. ActivX software is used with manual validation/visual inspection performed as needed based on data flagging/filtering measures. All inhibition data points are visually verified, as are all data points showing variability outside of normal limits.

[7] = target: C-Raf (Homo sapiens (Human), UniProt P04049); assay: ActivX KiNativ A375 whole cell lysate assay; format: binding
Protocol: as §1, §4, §2, §5

[8] = target: A-Raf (Homo sapiens (Human), UniProt P10398); assay: ActivX KiNativ A375 whole cell lysate assay; format: binding
Protocol: as §1, §4, §2, §5

[9] = Body weight in A375 mouse xenograft efficacy model; format: in vivo, mice; conditions: oral, 21 days
Protocol: as §3

[10] = test system: phospho-ERK in A375 (B-Raf V600E) xenograft; assay: A375 mouse xenograft pharmacodynamic assay (tumor pERK by ELISA); format: in vivo, mice; conditions: A-375, 20 mg/kg oral, 2 h post dose, vs vehicle, read-out: Measured pERK inhibition 2 h post dose
Protocol: To evaluate the in vivo pharmacodynamic (PD) effects of compounds of Formula I, an A375 (B-Raf V600E) xenograft model is employed. Briefly, 10×10^6 A375 tumor cells (ATCC) are prepared in a 1:1 matrigel mix (0.2 mL total volume) and implanted by subcutaneous injection in hind leg of nude female mice. A total of 4 mice each for each dosing group are employed. Treatment is initiated with oral administration (gavage) of test compound or vehicle (20% captisol, 25 mM phosphate, pH2.0) in 0.2 mL volume when average tumor size reaches approximately 300 mg. After a fixed time interval, the tumors are harvested and the phospho-ERK levels are measured by ELISA (Enzyme-linked immunosorbent assay). Treated groups are compared to the vehicle control group to calculate % inhibition.

[11] = twice a day at 12 mg/kg or thrice per day at 8 or 12 mg/kg

Sequence of B-Raf (V600E) (P15056 whole entry V600E): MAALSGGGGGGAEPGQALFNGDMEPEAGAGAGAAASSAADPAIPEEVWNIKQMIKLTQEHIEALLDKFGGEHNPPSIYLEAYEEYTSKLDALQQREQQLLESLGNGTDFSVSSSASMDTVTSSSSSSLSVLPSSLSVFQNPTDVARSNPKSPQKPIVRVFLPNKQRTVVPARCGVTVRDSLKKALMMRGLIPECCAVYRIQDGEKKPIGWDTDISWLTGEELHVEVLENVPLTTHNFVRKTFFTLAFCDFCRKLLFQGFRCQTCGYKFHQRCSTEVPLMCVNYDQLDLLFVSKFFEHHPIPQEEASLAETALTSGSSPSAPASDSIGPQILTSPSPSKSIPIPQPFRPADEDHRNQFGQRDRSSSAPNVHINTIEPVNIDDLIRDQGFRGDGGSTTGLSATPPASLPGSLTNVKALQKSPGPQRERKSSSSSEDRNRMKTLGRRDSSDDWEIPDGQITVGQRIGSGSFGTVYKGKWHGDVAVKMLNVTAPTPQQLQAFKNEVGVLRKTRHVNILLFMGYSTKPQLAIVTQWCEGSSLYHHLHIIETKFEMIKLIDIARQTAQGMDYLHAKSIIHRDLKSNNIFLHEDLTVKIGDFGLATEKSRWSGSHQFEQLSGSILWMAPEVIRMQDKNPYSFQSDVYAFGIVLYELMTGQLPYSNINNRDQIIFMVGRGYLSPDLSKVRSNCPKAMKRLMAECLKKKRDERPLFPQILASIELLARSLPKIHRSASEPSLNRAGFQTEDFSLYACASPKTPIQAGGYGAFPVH
Sequence of C-Raf (P04049 whole entry): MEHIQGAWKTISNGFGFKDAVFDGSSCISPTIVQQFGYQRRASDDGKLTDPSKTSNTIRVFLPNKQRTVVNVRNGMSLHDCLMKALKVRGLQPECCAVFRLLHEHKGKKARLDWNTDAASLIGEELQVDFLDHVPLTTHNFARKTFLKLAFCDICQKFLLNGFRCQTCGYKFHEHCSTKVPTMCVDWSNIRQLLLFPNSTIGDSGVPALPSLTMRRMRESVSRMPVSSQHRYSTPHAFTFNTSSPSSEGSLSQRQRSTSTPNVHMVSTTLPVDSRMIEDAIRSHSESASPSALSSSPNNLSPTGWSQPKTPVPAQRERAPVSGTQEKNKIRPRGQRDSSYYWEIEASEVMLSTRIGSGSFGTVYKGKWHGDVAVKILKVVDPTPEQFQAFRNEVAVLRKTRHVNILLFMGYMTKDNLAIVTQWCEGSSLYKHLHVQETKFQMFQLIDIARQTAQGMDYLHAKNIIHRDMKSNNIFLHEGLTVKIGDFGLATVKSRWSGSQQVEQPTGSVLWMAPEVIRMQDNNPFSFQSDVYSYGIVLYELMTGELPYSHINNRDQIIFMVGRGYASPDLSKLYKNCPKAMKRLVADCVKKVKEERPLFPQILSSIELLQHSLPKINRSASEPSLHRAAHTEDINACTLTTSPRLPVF
Sequence of A-Raf (P10398 whole entry): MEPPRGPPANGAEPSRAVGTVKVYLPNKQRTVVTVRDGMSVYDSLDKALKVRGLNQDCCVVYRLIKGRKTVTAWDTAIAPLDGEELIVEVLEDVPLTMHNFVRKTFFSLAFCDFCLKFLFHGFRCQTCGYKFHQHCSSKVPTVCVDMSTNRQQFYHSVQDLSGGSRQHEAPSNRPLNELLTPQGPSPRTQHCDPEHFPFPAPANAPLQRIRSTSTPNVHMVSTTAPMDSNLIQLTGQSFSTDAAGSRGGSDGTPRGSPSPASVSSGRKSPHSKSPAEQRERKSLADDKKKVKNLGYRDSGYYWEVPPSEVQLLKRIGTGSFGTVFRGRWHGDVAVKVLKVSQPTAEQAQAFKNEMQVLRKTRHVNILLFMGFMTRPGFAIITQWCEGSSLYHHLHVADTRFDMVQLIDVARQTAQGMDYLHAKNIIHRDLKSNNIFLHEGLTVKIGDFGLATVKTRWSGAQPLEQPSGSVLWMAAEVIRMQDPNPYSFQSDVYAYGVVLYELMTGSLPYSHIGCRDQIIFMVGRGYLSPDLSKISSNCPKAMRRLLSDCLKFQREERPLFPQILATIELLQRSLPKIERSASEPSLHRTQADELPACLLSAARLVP

IC50 [1] [µM]	IC50 [2] [µM]	IC50 shift A375 to A375res [3]	IC50 [5] [µM]	IC50 ([6]; first B-Raf (V600E) column) [µM]	IC50 ([6]; second B-Raf (V600E) column) [µM]	IC50 [7] [µM]	IC50 [8] [µM]	Compound	tumor growth ([4]; twice a day at 10 or 30 mg/kg)	animal body weight loss ([9]; twice a day at 10 or 30 mg/kg)	tumor growth [4, 11]	inhibition in vivo at 20 mg/kg [10] [%]	animal body weight loss [9, 11]
< 0.17	0.009 to 0.504	0.5-4.9 fold	0.002 to 0.096	0.016	0.022	0.17	0.12	CNc1cc2nc(C)c(-c3cc(NC(=O)NCCC(C)(C)F)c(F)cc3C)cc2cn1 [Example 76, 1-(3-fluoro-3-methylbutyl)-3-(2-fluoro-4-methyl-5-(2-methyl-7-(methylamino)-1,6-naphthyridin-3-yl)phenyl)urea]	tumor growth inhibition and tumor growth regression	minimal animal body weight loss			
< 0.17			0.002 to 0.096	0.035	0.037	0.02	0.031	CNc1cc2nc(C)c(-c3cc(NC(=O)NCCC(C)(C)C)c(F)cc3F)cc2cn1 [Example 18, 1-(2,4-difluoro-5-(2-methyl-7-(methylamino)-1,6-naphthyridin-3-yl)phenyl)-3-(3,3-dimethylbutyl)urea]			tumor growth inhibition	93	minimal animal body weight loss
